# Measurements from patent US12281333B2, “Renal tube assay device and methods of manufacture and use” (The University of Kansas, priority 2020, dated 2025).
# Assays:
# [1] = system: tubules of M1 cells; assay: Contractility of renal tubule model lined by M1 cells (kymogram analysis of time-lapse images); assay type: cell-based, mouse; details: for relative contraction (ratio of measured contraction to tubule diameter): percent of untreated tubule diameter, FIG. 3C
# Description: (§1) Time-lapse recordings of kidney epithelial cells in hydrogel tunnels were performed on a Zeiss Axio Observer Z1 ® inverted microscope with a 10× Plan Neofluar® objective. The microscope was equipped with a Marzhauser SCAN-IM powered stage and a Zeiss AxioCam® MRm CCD camera. Cell cultures established in flow chambers within cell culture dishes (Greiner) were continuously kept in a stage-incubator (Cell Movie) providing 37° C. and humidified 5% CO2 atmosphere. Stage positioning, focusing and image collection were all controlled by Zeiss Axiovision® 4.8 software and a custom-made experiment manager software module. Phase contrast images were collected consecutively in every 10 minutes from several microscopic fields for up to 4 days. Alternatively, for real-time video microscopy the images were captured at a rate of 20 frames per second.
# Contraction of renal tubule models were analyzed on the basis of image series captured by phase-contrast time-lapse video microscopy. Using NIH ImageJ software's Reslice function image series were resliced along a cross sectional line across the tubule resulting in a kymogram.
# For inhibition of actomyosin contractility, Y27632, a cell-permeable Rho kinase inhibitor, (Merck Millipore (9) was applied. The inhibitor was dissolved in water and kept in 10 mM stock solutions and used at 50 μM final concentration. For control treatments, an identical volume of water was applied.
# (§2) The inhibitor was applied at 50 μM final concentration in the flow chamber without circulation, resulting in dilation of the tunnel within 30 minutes. […] Both the dilation and contraction responses were quantitatively analyzed by constructing kymograms from the phase-contrast time-lapse image series as shown in FIG. 3A. In a collagen I gel, the diameter of 250 μm wide M1- or MDCK-lined tunnels contracted by 20 or 15 μm, respectively as shown in FIG. 3B. The relative contraction (as defined by the ratio of the measured contraction to tubule diameter) is larger for tubules with smaller diameters: while the 250 μm tubule contracts almost […] of its diameter, a 600 μm large tubule contracts only about 5% as shown in FIG. 3C.
# FIGS. 3A-3C show the contractility of model renal tubules. FIG. 3A includes a representative kymogram along a perpendicular cross section of a tubule of M1 cells in collagen I gel matrix. Time progresses from top to bottom, a 10h long interval is indicated by the arrow. The duration of treatment with 50 μM Y27632 Rho kinase inhibitor is indicated with the red line (scale bar: 50 μm). FIGS. 3B-3C include graphs illustrating quantitative analysis of tubule contractility. […] Error bars represent SEM.
# [2] = system: tubules of MDCK cells; assay: Contractility of renal tubule model lined by MDCK cells (kymogram analysis of time-lapse images); assay type: cell-based, canine; details: 250 μm wide MDCK-lined tunnels in collagen I gel; 50 μM inhibitor then washout; FIG. 3B, n=2
# Description: as §1, with “Phase contrast images were collected consecutively in every 10 minutes from several microscopic fields for up to 4 days. Alternatively, for real-time video microscopy the images were captured at a rate of 20 frames per second.” left out
# Contraction of renal tubule models were analyzed on the basis of image series captured by phase-contrast time-lapse video microscopy. […]
# as §2, with “In a collagen I gel, the diameter of 250 μm wide M1- or MDCK-lined tunnels contracted by 20 or 15 μm, respectively as shown in FIG. 3B.” left out, “3C. […]” for “3C.”
compound,measurement,setting,value
C[C@@H](N)[C@H]1CC[C@H](C(=O)Nc2ccncc2)CC1 [Y27632],time to dilation of the tunnel,"[1]; 50 μM final concentration in the flow chamber without circulation, cell line not given, FIG. 3A kymogram is M1 cells in collagen I gel",≤ 30 min
same,relative contraction (ratio of measured contraction to tubule diameter),[1]; 250 μm tubule of M1 cells,~13%
same,contraction of tunnel diameter,"[1]; 250 μm wide M1-lined tunnels in collagen I gel, 50 μM inhibitor then washout, FIG. 3B, n=2",20 μm
same,relative contraction (ratio of measured contraction to tubule diameter),[1]; 600 μm tubule of M1 cells,about 5%
same,effect of subsequent washout of the inhibitor on the tunnel,"[1]; after 50 μM treatment, washout",gradual contraction of the tunnel to approximately its initial state
same,contraction of tunnel diameter,[2],15 μm
